Assay: xn = mol fraction of the nth substance listed
Conditions: 313.15 K, 100 kPa, Liquid, Alternating current cell with electrodes

CCCC[N+]1(C)CCCC1.N#CN=C=[N-] [1-butyl-1-methylpyrrolidinium dicyanamide] + O=C1CCCO1
Conditions	electrical conductivity [S/m]
Frequency=0.002 MHz, x1 = 1	2
Frequency=0.0025 MHz, x1 = 0.0463	1.79
Frequency=0.0025 MHz, x1 = 0.0987	2.72
Frequency=0.0025 MHz, x1 = 0.1449	3.13
Frequency=0.0025 MHz, x1 = 0.1859	3.36
Frequency=0.0025 MHz, x1 = 0.2493	3.36
Frequency=0.0025 MHz, x1 = 0.3029	3.315
Frequency=0.0025 MHz, x1 = 0.3845	3.16
Frequency=0.0025 MHz, x1 = 0.4985	2.87
Frequency=0.0025 MHz, x1 = 0.6954	2.425
Frequency=0.0025 MHz, x1 = 0.9013	2.09
Frequency=0.0025 MHz, x1 = 1	2
Frequency=0.003 MHz, x1 = 0.0463	1.79
Frequency=0.003 MHz, x1 = 0.0987	2.72
Frequency=0.003 MHz, x1 = 0.1449	3.13
Frequency=0.003 MHz, x1 = 0.1859	3.36
Frequency=0.003 MHz, x1 = 0.2493	3.36
Frequency=0.003 MHz, x1 = 0.3029	3.316
Frequency=0.003 MHz, x1 = 0.3845	3.16
Frequency=0.003 MHz, x1 = 0.4985	2.87
Frequency=0.003 MHz, x1 = 0.6954	2.425
Frequency=0.003 MHz, x1 = 0.9013	2.09
Frequency=0.003 MHz, x1 = 1	2
Frequency=0.00347222 MHz, x1 = 0.0463	1.79
Frequency=0.00347222 MHz, x1 = 0.0987	2.72
Frequency=0.00347222 MHz, x1 = 0.1449	3.13
Frequency=0.00347222 MHz, x1 = 0.1859	3.37
Frequency=0.00347222 MHz, x1 = 0.2493	3.36
Frequency=0.00347222 MHz, x1 = 0.3029	3.317
Frequency=0.00347222 MHz, x1 = 0.3845	3.16
Frequency=0.00347222 MHz, x1 = 0.4985	2.87
Frequency=0.00347222 MHz, x1 = 0.6954	2.425
Frequency=0.00347222 MHz, x1 = 0.9013	2.09
Frequency=0.00347222 MHz, x1 = 1	2
Frequency=0.004 MHz, x1 = 0.0463	1.79
Frequency=0.004 MHz, x1 = 0.0987	2.73
Frequency=0.004 MHz, x1 = 0.1449	3.13
Frequency=0.004 MHz, x1 = 0.1859	3.37
Frequency=0.004 MHz, x1 = 0.2493	3.36
Frequency=0.004 MHz, x1 = 0.3029	3.318
Frequency=0.004 MHz, x1 = 0.3845	3.16
Frequency=0.004 MHz, x1 = 0.4985	2.88
Frequency=0.004 MHz, x1 = 0.6954	2.426
Frequency=0.004 MHz, x1 = 0.9013	2.09
Frequency=0.004 MHz, x1 = 1	2
Frequency=0.00446429 MHz, x1 = 0.0463	1.79
Frequency=0.00446429 MHz, x1 = 0.0987	2.73
Frequency=0.00446429 MHz, x1 = 0.1449	3.13
Frequency=0.00446429 MHz, x1 = 0.1859	3.37
Frequency=0.00446429 MHz, x1 = 0.2493	3.36
Frequency=0.00446429 MHz, x1 = 0.3029	3.318
Frequency=0.00446429 MHz, x1 = 0.3845	3.16
Frequency=0.00446429 MHz, x1 = 0.4985	2.88
Frequency=0.00446429 MHz, x1 = 0.6954	2.426
Frequency=0.00446429 MHz, x1 = 0.9013	2.09
Frequency=0.00446429 MHz, x1 = 1	2
Frequency=0.005 MHz, x1 = 0.0463	1.79
Frequency=0.005 MHz, x1 = 0.0987	2.73
Frequency=0.005 MHz, x1 = 0.1449	3.13
Frequency=0.005 MHz, x1 = 0.1859	3.37
Frequency=0.005 MHz, x1 = 0.2493	3.36
Frequency=0.005 MHz, x1 = 0.3029	3.319
Frequency=0.005 MHz, x1 = 0.3845	3.16
Frequency=0.005 MHz, x1 = 0.4985	2.88
Frequency=0.005 MHz, x1 = 0.6954	2.426
Frequency=0.005 MHz, x1 = 0.9013	2.09
Frequency=0.005 MHz, x1 = 1	2
Frequency=0.005454 MHz, x1 = 0.0463	1.79
Frequency=0.005454 MHz, x1 = 0.0987	2.73
Frequency=0.005454 MHz, x1 = 0.1449	3.13
Frequency=0.005454 MHz, x1 = 0.1859	3.37
Frequency=0.005454 MHz, x1 = 0.2493	3.36
Frequency=0.005454 MHz, x1 = 0.3029	3.319
Frequency=0.005454 MHz, x1 = 0.3845	3.16
Frequency=0.005454 MHz, x1 = 0.4985	2.88
Frequency=0.005454 MHz, x1 = 0.6954	2.426
Frequency=0.005454 MHz, x1 = 0.9013	2.09
Frequency=0.005454 MHz, x1 = 1	2
Frequency=0.006 MHz, x1 = 0.0463	1.79
Frequency=0.006 MHz, x1 = 0.0987	2.73
Frequency=0.006 MHz, x1 = 0.1449	3.13
Frequency=0.006 MHz, x1 = 0.1859	3.37
Frequency=0.006 MHz, x1 = 0.2493	3.36
Frequency=0.006 MHz, x1 = 0.3029	3.32
Frequency=0.006 MHz, x1 = 0.3845	3.16
Frequency=0.006 MHz, x1 = 0.4985	2.88
Frequency=0.006 MHz, x1 = 0.6954	2.43
Frequency=0.006 MHz, x1 = 0.9013	2.09
Frequency=0.006 MHz, x1 = 1	2
Frequency=0.00652174 MHz, x1 = 0.0463	1.79
Frequency=0.00652174 MHz, x1 = 0.0987	2.73
Frequency=0.00652174 MHz, x1 = 0.1449	3.13
Frequency=0.00652174 MHz, x1 = 0.1859	3.37
Frequency=0.00652174 MHz, x1 = 0.2493	3.36
Frequency=0.00652174 MHz, x1 = 0.3029	3.32
Frequency=0.00652174 MHz, x1 = 0.3845	3.16
Frequency=0.00652174 MHz, x1 = 0.4985	2.88
Frequency=0.00652174 MHz, x1 = 0.6954	2.43
Frequency=0.00652174 MHz, x1 = 0.9013	2.09
Frequency=0.00652174 MHz, x1 = 1	2
Frequency=0.00694444 MHz, x1 = 0.0463	1.79
Frequency=0.00694444 MHz, x1 = 0.0987	2.73
Frequency=0.00694444 MHz, x1 = 0.1449	3.13
Frequency=0.00694444 MHz, x1 = 0.1859	3.37
Frequency=0.00694444 MHz, x1 = 0.2493	3.36
Frequency=0.00694444 MHz, x1 = 0.3029	3.32
Frequency=0.00694444 MHz, x1 = 0.3845	3.16

Source: the NIST ThermoML archive (doi:10.1016/j.jct.2015.08.014)
